Data: patent US20250177372A1, “LIQUID FORMULATIONS OF INDACATEROL AND GLYCOPYRRONIUM” (AeroRx Therapeutics, Inc., priority 2022, published 2025)
Where a name gives a salt, the structure may show the parent alone. Blank lines part the entries; values can stand above or below the molecule they belong to.

How the values were obtained:
Assay type in all cases: physicochemical
[1] = Forced degradation study of indacaterol (RP-HPLC impurities); settings: for Total Impurities* (%): includes 2% process-related impurity
Method: A degraded sample panel was prepared to identify indacaterol degradation pathways and products. Stress conditions are outlined in Table 1.
One of 6N HCl, 6N NaOH, or 30% H2O2 (aqueous) were added to a suitable volume of 100 μg/mL indacaterol and diluted with water:methanol (50:50, v:v) to achieve a final indacaterol concentration of 10 μg/mL. Samples were stored at ambient temperature. At specified time points, acidic and basic hydrolysis (1 N HCl and 1 N NaOH, respectively) samples were neutralized (H2O2 samples were not quenched) and reversed-phase high performance liquid chromatography (RP-HPLC) was used to quantitate indacaterol impurities. All samples were diluted to 5 μg/mL prior to RP-HPLC analysis. Method parameters are outlined in Table 2.
Total impurities (process-related and product-related) of the indacaterol forced degradation study samples are presented in Table 3. Forced degradation impurity peaks were identified based on their retention time relative (RRT) to the indacaterol peak. Impurity peaks already present in the indacaterol (control group at T0; total peak area approximately 2%) were considered process-related, while additional peaks formed after the degradation were considered product-related.

[2] = Aqueous solubility of indacaterol and indacaterol maleate in water (orbital shaker, UV-Vis); settings: for pH after dissolution / Solubility: water, initial pH 7.1; for Solubility: shaken 12 hours, UV-Vis
Method: Solubility studies of indacaterol and indacaterol maleate were performed using an orbital shaker method. Excess indacaterol was placed in a glass vial with water. The initial pH of the water was 7.1. Samples were shaken for 12 hours to ensure equilibrium was reached. After the 12 hour period, the vial was removed from the shaker and allowed to settle for 30 minutes. Then, the sample was filtered using a 0.2 μM polyvinylidene fluoride (PVDF) syringe filter; the initial 0.5 mL of filtrate was discarded. The pH was then measured and the concentration of the indacaterol was evaluated by UV-Vis.

[3] = Aqueous solubility of indacaterol with varying pH in citrate buffer (orbital shaker, UV-Vis); settings: aqueous citrate buffer 5 mM
Method: Solubility studies of indacaterol in solutions of varying pH were performed using an orbital shaker method. Excess indacaterol was placed in a glass vial with an aqueous citrate buffer (5 mM; prepared from citric acid and NaOH). Samples were shaken for 12 to 24 hours to ensure equilibrium was reached before checking and adjusting the pH (using 1 M HCl and NaOH) and placing samples back into the orbital shaker for an additional 12 hours. This process was repeated up to two times or until the desired pH was obtained. After the desired pH was reached, the vial was removed from the shaker and allowed to settle for 30 minutes. Then, the sample was filtered using a 0.2 μM PVDF syringe filter; the initial 0.5 mL of filtrate was discarded. The pH was then measured and the concentration of the indacaterol was evaluated by UV-Vis.

[4] = Acidic Hydrolysis (1M HCl), 15 h, ambient temperature
[5] = Basic Hydrolysis (1M NaOH), 15 h, ambient temperature

Total Peak Area (%) ([1]; Acidic Hydrolysis (1M HCl), 15 h): 99.79%
Indacaterol (%) [1, 4]: 92.54%
Total Impurities* (%) [1, 4]: 7.25%
Indacaterol (%), Change in % peak ([1]; Acidic Hydrolysis (1M HCl), 15 h vs T0): −3.27%
Indacaterol (%) ([1]; Acidic Hydrolysis (1M HCl), T0): 95.81%
Total Peak Area (%) ([1]; Acidic Hydrolysis (1M HCl), T0): 99.82%
Total Impurities* (%) ([1]; Acidic Hydrolysis (1M HCl), T0): 4.01%
Total Peak Area (%) ([1]; Basic Hydrolysis (1M NaOH), 15 h): 99.75%
Indacaterol (%) [1, 5]: 92.06%
Total Impurities* (%) [1, 5]: 7.69%
Indacaterol (%), Change in % peak ([1]; Basic Hydrolysis (1M NaOH), 15 h vs T0): −3.76%
Indacaterol (%) ([1]; Basic Hydrolysis (1M NaOH), T0): 95.82%
Total Peak Area (%) ([1]; Basic Hydrolysis (1M NaOH), T0): 99.81%
Total Impurities* (%) ([1]; Basic Hydrolysis (1M NaOH), T0): 3.99%
Total Peak Area (%) ([1]; Control, T0): 99.85%
Indacaterol (%) ([1]; Control, T0, 10 μg/mL in MeOH:H2O (50:50), ambient temperature): 98.04%
Total Impurities* (%) ([1]; Control, T0): 1.81%
Indacaterol (%) ([1]; Oxidation (1.2% H2O2), 7 h): 97.03%
Total Peak Area (%) ([1]; Oxidation (1.2% H2O2), 7 h): 99.89%
Total Impurities* (%) ([1]; Oxidation (1.2% H2O2), 7 h): 2.77%
Indacaterol (%) ([1]; Oxidation (1.2% H2O2), 29 h): 90.76%
Total Peak Area (%) ([1]; Oxidation (1.2% H2O2), 29 h): 99.59%
Total Impurities* (%) ([1]; Oxidation (1.2% H2O2), 29 h): 8.83%
Total Impurities* (%) ([1]; Oxidation (1.2% H2O2), 29 h, listed as indacaterol): approximately 9%
Indacaterol (%), Change in % peak ([1]; Oxidation (1.2% H2O2), 29 h vs 7 h): −6.27%
degradation of indacaterol samples in aqueous solutions over time (FIG. 1) ([1]; forced degradation experiment, staggered chromatogram): minimal degradation
solubility in water ([2]; water at pH 7.1): insoluble
pH after dissolution [2]: 6.20
Solubility [2]: < 1 µg/mL
dependence of indacaterol solubility on pH [3]: increase with decreasing pH
SMILES: CCc1cc2c(cc1CC)CC(NC[C@H](O)c1ccc(O)c3[nH]c(=O)ccc13)C2 [Indacaterol, (R)-5-[2-(5,6-Diethylindan-2-ylamino)-1-hydroxyethyl]-8hydroxy-1H-quinolin-2-one]

pH after dissolution [2]: 3.30
Solubility [2]: 230 µg/mL
SMILES: CCc1cc2c(cc1CC)CC(NC[C@H](O)c1ccc(O)c3[nH]c(=O)ccc13)C2 [Indacaterol maleate, indacaterol maleate]
